This passage reports EC50 results from patent US20250195521A1 (Revolution Medicines, Inc., priority 2020, published 2025).

One assay concerns K-Ras G12C (NCI-H358 cells). As to the kind of experiment: Potency assay: pERK in NCI-H358 cells. It counts as cell-based, human. The note with it: Homo sapiens, NCI-H358, 4 h, read-out: pERK EC50 (H358 KRAS G12C). As for the experimental part:
The purpose of this assay is to measure the ability of test compounds to inhibit K-Ras in cells. […] This procedure measures a decrease in cellular pERK in response to test compounds. The procedure described below in NCI-H358 cells is applicable to K-Ras G12C.
Note: This protocol may be executed substituting other cell lines to characterize inhibitors of other RAS variants, including, for example, AsPC-1 (K-Ras G12D), Capan-1 (K-Ras G12V), or NCI-H1355 (K-Ras G13C).
NCI-H358 cells were grown and maintained using media and procedures recommended by the ATCC. On the day prior to compound addition, cells were plated in 384-well cell culture plates (40 μl/well) and grown overnight in a 37° C., 5% CO2 incubator. Test compounds were prepared in 10, 3-fold dilutions in DMSO, with a high concentration of 10 mM. On the day of assay, 40 nL of test compound was added to each well of cell culture plate using an Echo550 liquid handler (LabCyte®). Concentrations of test compound were tested in duplicate. After compound addition, cells were incubated 4 hours at 37° C., 5% CO2. Following incubation, culture medium was removed and cells were washed once with phosphate buffered saline.
In some experiments, cellular pERK level was determined using the AlphaLISA SureFire Ultra p-ERK1/2 Assay Kit (PerkinElmer). Cells were lysed in 25 μL lysis buffer, with shaking at 600 RPM at room temperature. […] After a 2-hour incubation in the dark, 5 μL donor mix was added, plate was sealed, and incubated 2 hours at room temperature. Signal was read on an Envision plate reader (PerkinElmer) using standard AlphaLISA settings. Analysis of raw data was carried out in Excel (Microsoft) and Prism (GraphPad). Signal was plotted vs. the decadal logarithm of compound concentration, and IC50 was determined by fitting a 4-parameter sigmoidal concentration response model.
In other experiments, cellular pERK was determined by In-Cell Western. […] Fixed cells were washed 4 times for 5 minutes with TBS containing 0.1% Triton X-100 (TBST) and then blocked with 100 μL Odyssey blocking buffer (LI-COR) for 60 minutes at room temperature. Primary antibody (PERK, CST-4370, Cell Signaling Technology) was diluted 1:200 in blocking buffer, and 50 μL was added to each well and incubated overnight at 4° C. Cells were washed 4 times for 5 minutes with TBST. Secondary antibody (IR-800CW rabbit, LI-COR, diluted 1:800) and DNA stain DRAQ5 (LI-COR, diluted 1:2000) were added and incubated 1-2 hours at room temperature. Cells were washed 4 times for 5 minutes with TBST. Plates were scanned on a Li—COR Odyssey CLx Imager. Analysis of raw data was carried out in Excel (Microsoft) and Prism (GraphPad). Signal was plotted vs. the decadal logarithm of compound concentration, and IC50 was determined by fitting a 4-parameter sigmoidal concentration response model.
Usually EC50 stands for the concentration that produces a half-maximal response. Turning to `CCn1c(-c2cccnc2[C@H](C)OC)c2c3cc(ccc31)-c1cc(O)cc(c1)C[C@H](NC(=O)[C@H](C(C)C)N(C)C(=O)[C@@H]1CC1(F)F)C(=O)N1CCC[C@H](N1)C(=O)OCC(C)(C)C2` [Compound A167], the EC50 was less than 5 µM.

Regarding `C=CC(=O)N1CC[C@H](C(=O)N(C)[C@H](C(=O)N[C@H]2Cc3cc(cc(O)c3F)-c3ccc4c(c3)c(c(-c3c(CCOC)cccc3OC)n4CC)CC(C)(C)COC(=O)[C@@H]3CCCN(N3)C2=O)C(C)C)C1` [Compound A9], the EC50 was less than 5 µM.

As to `C=CC(=O)N1CC[C@H](C(=O)N(C)[C@H](C(=O)N[C@H]2Cc3cc(O)cc(c3)-c3ccc4c(c3)c(c(-c3ncccc3[C@@H](C)OC)n4CC)CC(C)(C)COC(=O)[C@@H]3CCCN(N3)C2=O)C(C)C)C1` [Compound A29], the EC50 is less than 5 µM.

Staying with this assay, now noted: Homo sapiens; NCI-H358 cells, 4 hours; read-out: pERK EC50 (H358 KRAS G12C).
In the case of `CCn1c(-c2cccnc2[C@H](C)OC)c2c3cc(ccc31)-c1csc(n1)C[C@H](NC(=O)[C@H](C(C)C)N(C)C(=O)N1CC(OC(F)F)C1)C(=O)N1CCC[C@H](N1)C(=O)OCC(C)(C)C2` [Compound A302], the EC50 is less than 5 µM.

Turning to `CCn1c(-c2cnccc2COC)c2c3cc(ccc31)-c1cc(O)cc(c1)C[C@H](NC(=O)[C@H](C(C)C)N(C)C(=O)[C@@H]1CCOC1)C(=O)N1CCC[C@H](N1)C(=O)OCC(C)(C)C2` [Compound A94], the EC50 was less than 5 µM.

As to `CCn1c(-c2cccnc2[C@H](C)OC)c2c3cc(ccc31)-c1csc(n1)C[C@H](NC(=O)[C@H](C(C)C)N(C)C(=O)N1CCN(C(=O)CO)CC1)C(=O)N1CCC[C@H](N1)C(=O)OCC(C)(C)C2` [Compound A306], the EC50 was less than 5 µM.

As to `CCn1c(-c2cccnc2[C@H](C)OC)c2c3cc(ccc31)-c1csc(n1)C[C@H](NC(=O)[C@H](C(C)C)N(C)C(=O)N1CCCC13CCN(C)CC3)C(=O)N1CCC[C@H](N1)C(=O)OCC(C)(C)C2` [Compound A498], the EC50 is less than 5 µM.

With `CCn1c(-c2cccnc2[C@H](C)OC)c2c3cc(ccc31)-c1csc(n1)C[C@H](NC(=O)[C@H](C(C)C)N(C)C(=O)N1CC3(CC(N(C)CCOC)C3)C1)C(=O)N1CCC[C@H](N1)C(=O)OCC(C)(C)C2` [Compound A532], the EC50 is less than 5 µM.

Consider `CCn1c(-c2cccnc2[C@H](C)OC)c2c3cc(ccc31)-c1csc(n1)C[C@H](NC(=O)N1CCCC1)C(=O)N1CCC[C@H](N1)C(=O)OCC(C)(C)C2` [Compound A267], for which the EC50 was less than 5 µM.

Consider `CCn1c(-c2cccnc2[C@H](C)OC)c2c3cc(ccc31)-c1cc(O)cc(c1)C[C@H](NC(=O)[C@H](C(C)C)N(C)C(=O)[C@H]1CC1(F)F)C(=O)N1CCC[C@H](N1)C(=O)OCC(C)(C)C2` [Compound A166], for which the EC50 is less than 5 µM.

Regarding `CCn1c(-c2cnccc2COC)c2c3cc(ccc31)-c1cc(O)cc(c1)C[C@H](NC(=O)[C@H](C(C)C)N(C)C(=O)[C@H]1CCN(C)C1)C(=O)N1CCC[C@H](N1)C(=O)OCC(C)(C)C2` [Compound A27, (2S)—N-[(8S,14S)-22-ethyl-4-hydroxy-21-[4-(methoxymethyl)pyridin-3-yl]-18,18-dimethyl-9,15-dioxo-16-oxa-10,22,28-triazapentacyclo [18.5.2.1^2,6.1^10,14.0^23,27]nonacosa-1 (26),2,4,6 (29),20,23 (27),24-heptaen-8-yl]-3-methyl-2-{N-methyl-1-[(3S)-1-methylpyrrolidin-3-yl]formamido}butanamide], the EC50 is less than 5 µM.

For `CCn1c(-c2cccnc2[C@H](C)OC)c2c3cc(ccc31)-c1cc(O)cc(c1)C[C@H](NC(=O)[C@H](C(C)C)N(C)C(=O)[C@H]1CC[C@@H](CN(C)C)O1)C(=O)N1CCC[C@H](N1)C(=O)OCC(C)(C)C2` [Compound A397], the EC50 is less than 5 µM.

On to `CCn1c(-c2cccnc2[C@H](C)OC)c2c3cc(ccc31)-c1csc(n1)C[C@H](NC(=O)[C@H](C(C)C)N(C)C(=O)N1CCC[C@H]1CN(C)C)C(=O)N1CCC[C@H](N1)C(=O)OCC(C)(C)C2` [Compound A519], for which the EC50 was less than 5 µM.

For `CCn1c(-c2cccnc2[C@H](C)OC)c2c3cc(ccc31)-c1cccc(c1)C[C@H](NC(=O)[C@H](C(C)C)N(C)C(=O)[C@H]1CCN(C(=O)CN)C1)C(=O)N1CCC[C@H](N1)C(=O)OCC(C)(C)C2` [Compound A105], the EC50 was less than 5 µM.

For `CCn1c(-c2cccnc2[C@H](C)OC)c2c3cc(ccc31)-c1csc(n1)C[C@H](NC(=O)[C@H](C(C)C)N(C)C(=O)N1CCCC13COC3)C(=O)N1CCC[C@H](N1)C(=O)OCC(C)(C)C2` [Compound A528], the EC50 was less than 5 µM.

In the case of `CCn1c(-c2cccnc2[C@H](C)OC)c2c3cc(ccc31)-c1csc(n1)C[C@H](NC(=O)[C@H](C(C)C)N(C)C(=O)N1CCC[C@H](CN(C)C)C1)C(=O)N1CCC[C@H](N1)C(=O)OCC(C)(C)C2` [Compound A573], the EC50 was less than 5 µM.

As to `CCn1c(-c2cccnc2[C@H](C)OC)c2c3cc(ccc31)-c1csc(n1)C[C@H](NC(=O)[C@H](C(C)C)N(C)C(=O)N1CCO[C@@H](C)C1)C(=O)N1CCC[C@H](N1)C(=O)OCC(C)(C)C2` [Compound A309], the EC50 is less than 5 µM.

Consider `CCn1c(-c2cnccc2COC)c2c3cc(ccc31)-c1cc(O)cc(c1)C[C@H](NC(=O)[C@H](C(C)C)N(C)C(=O)[C@H]1CCNC1)C(=O)N1CCC[C@H](N1)C(=O)OCC(C)(C)C2` [Compound A10], for which the EC50 was less than 5 µM.

`CCn1c(-c2cccnc2[C@H](C)OC)c2c3cc(ccc31)-c1csc(n1)C[C@H](NC(=O)[C@H](C(C)C)N(C)C(=O)N1CC(OC)C1)C(=O)N1CC[C@H](C)[C@H](N1)C(=O)OCC(C)(C)C2` [Compound A579, N-((2S)-1-(((6^3S,6^4S,4S,Z)-1^1-ethyl-1^2-(2-((S)-1-methoxyethyl)pyridin-3-yl)-6^4, 10, 10-trimethyl-5,7-dioxo-6^1,6^2,6^3,6^4,6^5,6^6-hexahydro-1^1H-8-oxa-2 (4,2)-thiazola-1 (5,3)-indola-6 (1,3)-pyridazinacycloundecaphane-4-yl)amino)-3-methyl-1-oxobutan-2-yl)-3-methoxy-N-methylazetidine-1-carboxamide]: the EC50 was less than 5 µM.

On to `CCn1c(-c2cccnc2[C@H](C)OC)c2c3cc(ccc31)-c1csc(n1)C[C@H](NC(=O)[C@H](C(C)C)N(C)C(=O)N1CC3(CCCO3)C1)C(=O)N1CCC[C@H](N1)C(=O)OCC(C)(C)C2` [Compound A522], for which the EC50 was less than 5 µM.

For `CCn1c(-c2cccnc2[C@H](C)OC)c2c3cc(ccc31)-c1cc(O)cc(c1)C[C@H](NC(=O)[C@H](C(C)C)N(C)C(=O)C1Cc3cccnc3C1)C(=O)N1CCC[C@H](N1)C(=O)OCC(C)(C)C2` (stereo partly drawn) [Compound A250], the EC50 is less than 5 µM.

As to `CCn1c(-c2cccnc2[C@H](C)OC)c2c3cc(ccc31)-c1csc(n1)C[C@H](NC(=O)[C@H](C(C)C)N(C)C(=O)[C@H]1CCN(C)C1)C(=O)N1CCC[C@H](N1)C(=O)OCC(C)(C)C2` [Compound A108], the EC50 was less than 5 µM.

Turning to `C=CC(=O)N1CC[C@H](C(=O)N(C)[C@H](C(=O)N[C@H]2Cc3cc(O)cc(c3)-c3ccc4c(c3)c(c(-c3ccccc3CCOC)n4C(C)(C)C#N)CC(C)(C)COC(=O)[C@@H]3CCCN(N3)C2=O)C(C)C)C1` [Compound A12], the EC50 is less than 5 µM.

On to `CCn1c(-c2cccnc2COC)c2c3cc(ccc31)-c1cc(O)cc(c1)C[C@H](NC(=O)[C@H](C(C)C)N(C)C(=O)[C@H]1CCNC1)C(=O)N1CCC[C@H](N1)C(=O)OCC(C)(C)C2` [Compound A32], for which the EC50 was less than 5 µM.
